# Results reported in ChEMBL document CHEMBL1201862, “PubChem BioAssay data set” (2004).
#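 Step 1: Grow cells in 96-well plates. Step 2: Expose to compound for 48 hours at 5 concentrations. Step 3: Interpolate endpoints linearly; if unreached, use highest concentration. The concentration for 50% growth inhibition is given as GI50.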 The source made the active and inactive calls. Cut-off read from the data, not from the text of the source: active = GI50 up to about 1.1 µM and inactive = higher.
# What was measured:
# Experiment in all cases: growth of human tumour cells (NCI), 48 h
# [1] = test system: A549
# [2] = test system: COLO 205
# [3] = test system: HCC 2998
# [4] = test system: HCT-116
# [5] = test system: K562
# [6] = test system: LOX IMVI
# [7] = test system: NCI-H23
# [8] = test system: NCI-H460
# [9] = test system: OVCAR-4
# [10] = test system: OVCAR-5
# [11] = test system: SF-539
# [12] = test system: SK-MEL-5
# [13] = test system: SNB-19
# [14] = test system: U-251
# [15] = test system: UACC-257
# [16] = test system: UO-31
# [17] = test system: EKVX
# [18] = test system: HCT-15
SMILES,GI50 [1],GI50 [2],GI50 [3],GI50 [4],GI50 [5],GI50 [6],GI50 [7],GI50 [8],GI50 [9],GI50 [10],GI50 [11],GI50 [12],GI50 [13],GI50 [14],GI50 [15],GI50 [16],GI50 [17],GI50 [18] [µM]
Nc1c(Br)c(=O)[nH]c(=O)n1COCCO,> 100 µM (inactive),> 100 µM (inactive),> 100 µM (inactive),> 100 µM (inactive),> 100 µM (inactive),> 100 µM (inactive),> 100 µM (inactive),> 100 µM (inactive),> 100 µM (inactive),> 100 µM (inactive),> 100 µM (inactive),> 100 µM (inactive),> 100 µM (inactive),> 100 µM (inactive),> 100 µM (inactive),> 100 µM (inactive),–,–
O/N=C1\C(=C\c2ccc3c(c2)OCCO3)CCCC1C(NO)c1ccc2c(c1)OCCO2 (stereo not drawn),25.2 µM (inactive),32.4 µM (inactive),22.6 µM (inactive),18.7 µM (inactive),–,15.7 µM (inactive),–,20.5 µM (inactive),30.1 µM (inactive),32.6 µM (inactive),13.4 µM (inactive),16.4 µM (inactive),38.7 µM (inactive),19.3 µM (inactive),20.4 µM (inactive),26.8 µM (inactive),25.2 µM (inactive),22.5
N#CC(C(=O)CCCC(=O)Nc1ccccc1[N+](=O)[O-])c1c(Cl)cccc1Cl (stereo not drawn),> 100 µM (inactive),> 100 µM (inactive),> 100 µM (inactive),> 100 µM (inactive),> 100 µM (inactive),–,> 100 µM (inactive),> 100 µM (inactive),> 100 µM (inactive),> 100 µM (inactive),> 100 µM (inactive),> 100 µM (inactive),> 100 µM (inactive),> 100 µM (inactive),> 100 µM (inactive),> 100 µM (inactive),> 100 µM (inactive),> 100
COc1nc2c(OC)cccc2c(OC)c1C=O,> 100 µM (inactive),> 100 µM (inactive),–,76.7 µM (inactive),53.7 µM (inactive),> 100 µM (inactive),> 100 µM (inactive),> 100 µM (inactive),–,–,> 100 µM (inactive),> 100 µM (inactive),> 100 µM (inactive),> 100 µM (inactive),> 100 µM (inactive),> 100 µM (inactive),> 100 µM (inactive),> 100
CC(C)(C)CC(C)(C)c1cc2c(O)c(c1)Cc1cc(C(C)(C)CC(C)(C)C)cc(c1O)Cc1cc(C(C)(C)CC(C)(C)C)cc(c1O)Cc1cc(C(C)(C)CC(C)(C)C)cc(c1O)Cc1cc(C(C)(C)CC(C)(C)C)cc(c1O)C2,> 100 µM (inactive),> 100 µM (inactive),> 100 µM (inactive),> 100 µM (inactive),> 100 µM (inactive),–,> 100 µM (inactive),> 100 µM (inactive),> 100 µM (inactive),> 100 µM (inactive),> 100 µM (inactive),> 100 µM (inactive),> 100 µM (inactive),> 100 µM (inactive),> 100 µM (inactive),> 100 µM (inactive),> 100 µM (inactive),> 100
CCN(CC)c1ccc(/N=N/c2ccc(-c3nc4cccnc4o3)cc2)cc1,> 100 µM (inactive),> 100 µM (inactive),55.2 µM (inactive),> 100 µM (inactive),> 100 µM (inactive),> 100 µM (inactive),> 100 µM (inactive),–,> 100 µM (inactive),> 100 µM (inactive),> 100 µM (inactive),> 100 µM (inactive),> 100 µM (inactive),> 100 µM (inactive),> 100 µM (inactive),> 100 µM (inactive),> 100 µM (inactive),> 100
COC(=O)C12C3C=CC(O3)C1C1C=CC2O1 (stereo not drawn),> 100 µM (inactive),> 100 µM (inactive),> 100 µM (inactive),–,> 100 µM (inactive),–,> 100 µM (inactive),> 100 µM (inactive),–,> 100 µM (inactive),> 100 µM (inactive),> 100 µM (inactive),> 100 µM (inactive),> 100 µM (inactive),> 100 µM (inactive),> 100 µM (inactive),> 100 µM (inactive),> 100
Cc1c(OCCCOc2ccc3c(=O)cc(-c4ccccc4)oc3c2C)ccc2c(=O)cc(-c3ccccc3)oc12,> 100 µM (inactive),–,–,> 100 µM (inactive),59.2 µM (inactive),> 100 µM (inactive),> 100 µM (inactive),> 100 µM (inactive),–,> 100 µM (inactive),> 100 µM (inactive),> 100 µM (inactive),> 100 µM (inactive),> 100 µM (inactive),> 100 µM (inactive),> 100 µM (inactive),> 100 µM (inactive),> 100
